# Data as given in PubChem BioAssay AID1259332 (Broad Institute, 2017).
# “And” between values parts separate entries of the source, which are not always exact repeats. Equal entries are not always repeated. The source made the active and inactive calls. How the calls were made is not given here.
# System: B cell line, CD40 signaling inhibition reporter
# Test: inhibitors of CD40 signaling, dose response, B cell lineage (AID 1259332);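 further: cells stimulated with CD40 ligand tCD40L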
row,SMILES,AC50
1,CS(=O)(=O)c1ccc(C(=O)OCC(=O)NC(=O)C2COc3ccccc3O2)cc1[N+](=O)[O-] (stereo not drawn),10.2 µM
2,O=C(COC(=O)c1ccccc1)c1ccc2c(c1)OCCO2,0.926 µM
3,COc1cccc(NC(=O)N2CC(=O)N3[C@H](CO)[C@@H](c4ccc(C#CCC5CCCC5)cc4)[C@H]3C2)c1,> 7 µM (inactive)
4,Cc1cccc(-c2nc3cc(NC(=O)C4CCCO4)ccc3o2)c1 (stereo not drawn),> 20 µM (inactive)
5,N#C[C@@H]1[C@@H](c2ccc(C#CC3CCCCC3)cc2)[C@H](CO)N1C(=O)Nc1ccc(F)cc1,6.51 µM
6,O=C(OC1CCOC1=O)c1ccccc1C(=O)c1ccc(Cl)c([N+](=O)[O-])c1 (stereo not drawn),> 20 µM (inactive)
7,CCN(CC)c1ccc(C(NC(=O)C(C)C)c2ccc3cccnc3c2O)cc1 (stereo not drawn),> 20 µM (inactive)
8,CCN1C(=O)C(CC(=O)Nc2ccc(F)cc2)N(Cc2ccco2)C1=S (stereo not drawn),5.03 µM
9,O=C1c2ccccc2C(=O)C1c1ccc2ccccc2n1,6.15 µM
10,C=C1C(=O)C23C(O)C1CCC2C12CCCC(C)(COC(C)=O)C1C(O)C3(O)OC2 (stereo not drawn),0.567 µM
11,CCC1=C(CC2NCCc3ccccc32)CC2c3cc(OC)c(OC)cc3CCN2C1 (stereo not drawn),1.75 µM
12,CC(C)(C)CC(C)(C)c1ccc(OCCOCC[N+](C)(C)Cc2ccccc2)cc1,1.62 µM
13,Cn1cnc([N+](=O)[O-])c1S(=O)(=O)Oc1cccc2ccccc12,0.368 µM
14,N#C[C@@H]1[C@H](c2ccc(C#Cc3ccccc3F)cc2)[C@@H](CO)N1C(=O)c1cccnc1,4.37 µM
15,CC(=O)OC1CC2(O)C3CCC4CC(O)CCC4(C)C3CCC2(C)C1C1=CC(=O)OC1 (stereo not drawn),1.12 µM
16,O=[N+]([O-])c1ccc(N2CCOCC2)c2c1no[n+]2[O-],1.76 µM
17,Cc1ccccc1-c1ccc2c(c1)O[C@@H](CN(C)C(=O)Nc1ccc(C(F)(F)F)cc1)[C@@H](C)CN([C@@H](C)CO)S2(=O)=O,10.5 µM
18,CC1Cc2ccccc2N1c1ncnc(N)c1[N+](=O)[O-] (stereo not drawn),7.92 µM
19,CO[C@H](CN(C)Cc1cc(F)ccc1F)[C@H](C)CN(C(=O)Nc1ccc(C(F)(F)F)cc1)[C@H](C)CO,8.88 µM
20,COc1ccc(C(=O)CCN2CCc3cc(OC)c(OC)cc3C2)cc1,5.82 µM
21,CC1=NNC(=O)C1Br (stereo not drawn),7.86 µM
22,O=C1NC2c3c(Cl)sc(Cl)c3C(=O)C2O1 (stereo not drawn),7.36 µM
23,N#C[C@@H]1[C@H](c2ccc(C#CC3CCCCC3)cc2)[C@H](CO)N1C(=O)Nc1ccc(F)cc1,> 20 µM (inactive)
24,[O-]C(=C(C(=S)Nc1cccc2ccccc12)[n+]1ccccc1)c1ccc2c(c1)OCCO2,> 20 µM (inactive)

row,SMILES,AC50
1,C[n+]1c(-c2ccccc2)cc2c(=Cc3ccc([N+](=O)[O-])cc3)c3ccccc3n21,3.93 µM
2,CC(C)[C@H](CO)Nc1nc(Nc2cccc(Cl)c2)c2ncn(C(C)C)c2n1,4.67 µM
3,CC[C@@]1(O)C(=O)OCc2c1cc1n(c2=O)Cc2cc3cc(O)ccc3nc2-1,1.33 µM
4,CC=Cc1cc2c(c(=O)o1)C(=O)C(O)C(C)O2 (stereo not drawn),> 20 µM (inactive)
5,N#CC(C#N)=NNc1ccc(OC(F)(F)F)cc1,3.97 µM
6,CC(OC(=O)c1cc(Br)ccc1O)C(=O)Nc1ccc(S(=O)(=O)N2CCCC2)cc1 (stereo not drawn),11 µM
7,Cc1ccc(S(=O)(=O)N2CCCC2CNC(=O)c2ccc3c(c2)OCO3)cc1 (stereo not drawn),3.91 µM
8,CC1=C(SCCO)C(=O)c2ccccc2C1=O,2.6 µM
9,C[C@H]1CN([C@@H](C)CO)C(=O)c2c(c3ccccc3n2C)-c2ccccc2CO[C@@H]1CN(C)Cc1cccc(C(F)(F)F)c1,2.17 µM
10,CCS(=O)(=O)N1[C@H](CO)[C@@H](c2ccc(C#Cc3ccccc3F)cc2)[C@@H]1C#N,4.12 µM
11,Clc1ccc(COC(Cn2ccnc2)c2ccc(Cl)cc2Cl)c(Cl)c1 (stereo not drawn),5.18 µM
12,CCCCNC(=O)C1(C)CCN1C(=O)c1cc(-c2cccs2)oc1C (stereo not drawn),3.11 µM
13,N#C[C@@H]1[C@H](c2ccc(C#CC3CCCC3)cc2)[C@@H](CO)N1C(=O)Nc1ccc(F)cc1,> 20 µM (inactive)
14,Cc1cc(C)nc(Sc2ncnc(N)c2[N+](=O)[O-])n1,2.63 µM
15,CCCNC(=O)N1[C@H](C#N)[C@H](c2ccc(C#Cc3cccc(F)c3)cc2)[C@H]1CO,5.57 µM
16,C[n+]1c2n(c3ccccc31)N=C(c1ccc(-c3ccccc3)cc1)CS2,1.21 µM
17,O=C(Nc1ccccc1)N1CC(=O)N2[C@H](CO)[C@@H](c3ccc(C#CC4CCCCC4)cc3)[C@H]2C1,11 µM
18,C=C1C(=O)OC2CC1C(O)CC(C)=CCCC(C)=CC(O)CC2C (stereo not drawn),6 µM
19,COC(=O)C1=C(C)NC(C)=C(C(=O)OCCCN2CCC(c3ccccc3)(c3ccccc3)CC2)[C@H]1c1cccc([N+](=O)[O-])c1,11.4 µM
20,CN1C(=O)/C(=N\OC(=O)c2cccc3ccccc23)c2ccccc21,1.21 µM
21,COc1cc2cc(C(=O)N3CC(COS(C)(=O)=O)c4ccc(O)cc43)[nH]c2c(OC)c1OC (stereo not drawn),0.00741 µM
22,Nc1nc(=O)c2ccccc2s1,8.69 µM
23,Cc1cc(C(=O)COC(=O)CNC(=O)c2ccccc2)c(C)n1CC1CCCO1 (stereo not drawn),2.32 µM
24,CCN(CC)CCCNc1nc2ccccc2c2[nH]c3ccc(OC)cc3c12,1.1 µM

row,SMILES,AC50
1,Cc1cc(C)cc(N2C(=O)CC(Sc3nnnn3-c3ccccc3)C2=O)c1 (stereo not drawn),0.675 µM
2,CCc1csc(N2[C@H](C#N)[C@H](c3ccc(C#Cc4ccc(F)cc4)cc3)[C@H]2CO)n1,> 20 µM (inactive)
3,CC(C)(C)[C@H](N)C(=O)N[C@H]1CCC2C3CC=C4C[C@@H](O)CC[C@]4(C)C3CC[C@@]21C (stereo partly drawn),5.04 µM
4,COc1ccc(C[C@H]2NC[C@H](O)[C@H]2OC(C)=O)cc1,0.0235 µM
5,Cc1csc(NC(=O)c2ccc(N3CCCC3=O)cc2)n1,4.3 µM
6,Cc1[nH]c2ccccc2c1C(c1ccccn1)N1CCC(C(N)=O)CC1 (stereo not drawn),9.34 µM
7,CC(=O)O[C@@H]1C[C@@]2(C)[C@H](c3ccoc3)C[C@H]3O[C@]32[C@]2(C)C(=O)C(=O)C3C(C)(C)C(=O)C=C[C@]3(C)C12 (stereo partly drawn),1.22 µM
8,O=C(NCCc1ccccc1)c1ccc2nccnc2c1,6.02 µM
9,COc1ccc(S(=O)(=O)Nc2ccc3c(c2)C(=O)N([C@H](C)CO)C[C@H](C)[C@@H](CN(C)Cc2ccc(C(F)(F)F)cc2)OCCCC[C@@H](C)O3)cc1,11.4 µM
10,COC(=O)C12OCC34C(CC5C(C)=C(O)C(=O)CC5(C)C3C(O)C1O)OC(=O)C(OC(=O)C=C(C)C)C24 (stereo not drawn),0.479 µM
11,Oc1ccc2c(c1)OCC1(O)Cc3cc(O)c(O)cc3C21 (stereo not drawn),2.81 µM
12,O=C(c1nnsc1S(=O)(=O)c1ccc(Cl)cc1)N1CCOCC1,2.31 µM
13,Cc1ccccc1C(=O)N1CCC(C(=O)Nc2nc3ccc(F)cc3s2)CC1,8.19 µM
14,C[C@H]1CN([C@@H](C)CO)C(=O)Cc2cc(NC(=O)Cc3cn(C)c4ccccc34)ccc2O[C@H]1CN(C)Cc1ccc(C(F)(F)F)cc1,> 20 µM (inactive)
15,C[C@@H]1CN([C@@H](C)CO)C(=O)c2cc(C#CCc3ccccc3)cnc2O[C@@H]1CN(C)C(=O)C1CCOCC1,7.23 µM
16,Cc1ccc2nc(C(F)(F)F)c(C#N)c(N)c2c1,6.7 µM
17,CCN(CC)C(=O)c1ccc(NC(=O)Nc2ccccc2F)cc1,2.35 µM
18,COC(=O)c1ccc2nc(NC(=O)C(C)(C)C)sc2c1,1.9 µM
19,COc1ccc(CC2C(=O)NC(C)C(=O)N(C)C3Cc4ccc(cc4)Oc4cc(ccc4O)CC(C(=O)NC(C)C(=O)NC(C)C(=O)N2C)N(C)C3=O)cc1 (stereo not drawn),0.00631 µM
20,COc1ccc(C(=O)O/N=C2\C(=O)N(C)c3ccccc32)cc1,1.84 µM
21,CCOC(=O)c1cc2c(ccn2C)n1Cc1ccc(C#N)cc1,> 20 µM (inactive)
22,C[C@@H]1CN([C@H](C)CO)C(=O)c2c(c3ccccc3n2C)-c2ccccc2CO[C@H]1CN(C)C(=O)Nc1cccc(Cl)c1Cl,7.74 µM
23,COc1cc(/C=N/n2cnnc2)ccc1OC(=O)c1ccncc1,3.6 µM
24,O=C1C=CC2C3C(=O)N(c4ccccc4)C(=O)C3C1N2Cc1ccccc1 (stereo not drawn),1.8 µM

row,SMILES,AC50
1,c1ccc(OCCSc2nnc3sc4ccccc4n23)cc1,4.7 µM
2,C=CC[n+]1c(/C=C2\C=Cc3cc(C)ccc3N2CC)ccc2ccccc21,2.7 µM
3,O=C(Nc1ccc2c(c1)OCCO2)C1CCCC1,5.46 µM
4,C=C1C(=O)O[C@H]2[C@H]1CC/C(C)=C/CC[C@@]1(C)O[C@@H]21,4.54 µM
5,CCC(C)[C@H]1O[C@]2(CC[C@@H]1C)C[C@@H]1C[C@@H](C/C=C(\C)[C@@H](OC3C[C@H](OC)C(O[C@H]4C[C@H](OC)[C@@H](O)[C@H](C)O4)[C@H](C)O3)[C@@H](C)/C=C/C=C3\CO[C@@H]4[C@H](O)C(C)=C[C@@H](C(=O)O1)[C@]34O)O2 (stereo partly drawn),> 20 µM (inactive)
6,Cc1noc(C)c1S(=O)(=O)N(C)C[C@@H]1OCc2ccccc2-c2c(n(C)c3ccccc23)C(=O)N([C@@H](C)CO)C[C@@H]1C,11.3 µM
7,C[C@@H]1CCCCO[C@H](CN(C)Cc2ccc(C(F)(F)F)cc2)[C@@H](C)CN([C@@H](C)CO)C(=O)c2cc(NC(=O)Nc3cccc4ccccc34)ccc2O1,> 20 µM (inactive)
8,Cc1ccccc1NC(=O)c1nc(S(C)(=O)=O)ncc1Cl,1.68 µM
9,O=C(c1ccc(Nc2nccc(-c3cc4ccccc4s3)n2)cc1)N1CCC(N2CCCC2)CC1,1.07 µM and 0.541 µM
10,C[C@H]1CN([C@@H](C)CO)C(=O)c2c(c3ccccc3n2C)-c2ccccc2CO[C@@H]1CN(C)C(=O)Nc1cccc(C(F)(F)F)c1,11.1 µM
11,CC(=O)OCC(=O)C1(O)CCC2C3CCC4=CC(=O)CCC4(C)C3(Cl)C(O)CC21C (stereo not drawn),> 20 µM (inactive)
12,CN(C)c1ccc(C(=C2C=CC(=[N+](C)C)C=C2)c2ccc(N(C)C)cc2)cc1,0.105 µM
13,COc1ccc(CN(CCC(c2ccccc2)c2ccc(OC(C)C)cc2)C(=O)CCl)cc1OC (stereo not drawn),1.68 µM
14,Cn1c(CO)nc2cc(N)ccc21,> 20 µM (inactive)
15,O=C(C1CCOCC1)N1CC(=O)N2[C@H](C1)[C@@H](c1ccc(C#CCc3ccccc3)cc1)[C@@H]2CO,5.95 µM
16,O=C(C1CCOCC1)N1CC(=O)N2[C@H](C1)[C@H](c1ccc(C#CCc3ccccc3)cc1)[C@@H]2CO,1.86 µM
17,Cc1ccc(S(=O)(=O)CCC(=O)N(CCCN2CCOCC2)c2nc3ccccc3s2)cc1,8.01 µM
18,Clc1ccc(C(Cn2ccnc2)OCc2ccsc2Cl)c(Cl)c1 (stereo not drawn),6.04 µM
19,OC(c1cc(-c2cccc(Cl)c2)nc2ccccc12)C1CCCCN1 (stereo not drawn),4.14 µM
20,CCc1cnc(N2[C@H](C#N)[C@H](c3ccc(C#Cc4ccccc4F)cc3)[C@H]2CO)s1,9.09 µM
21,CC(C)NC(=O)N1Cc2cc(C(=O)NC3Cc4ccccc4C3)nc(-c3cccc(-c4cccnc4)c3)c2[C@@H]1CCO,10.6 µM
